We go through 17 molecules from patent publication US20240083857A1, “2-Methyl-Quinazolines” (Bayer Pharma Aktiengesellschaft, priority 2017, published 2024).

The target in test [1] is human SOS1 (loading of human K-Ras^G12C-GDP with fluorescent GTP-analog) (Homo sapiens, UniProt Q07889). Description: Biochemical assay 3: K-Ras^G12C activation assay by hSOS1 (HTRF). To be noted: no GTP; for IC50: read-out: Assay 3 (KRAS-Activation by SOS no GTP) activity expressed as IC50; for inhibition at 20 µM: read-out: Assay 3 (KRAS-Activation by SOS no GTP) activity expressed as % inhibition at 20 μM. The text has this:
Biochemical assay 3: K-Ras^G12C Activation Assay by hSOS1
K-Ras is a small GTPase that can bind GDP and GTP. The guanine nucleotide exchange factor SOS catalyzes the activation of K-Ras by promoting the exchange of GDP to GTP. SOS binds to K-Ras-GDP thereby opening the GDP-binding pocket to facilitate GDP release. Rebinding of excess nucleotide leads to dissociation of the K-Ras-SOS intermediate complex leaving K-Ras loaded with the nucleotide.
This assay quantifies human SOS1-mediated loading of human K-Ras^G12C-GDP with a fluorescent GTP-analog. Detection of successful loading is achieved by measuring homogenous time-resolved fluorescence resonance energy transfer (HTRF) from antiGST-Terbium (FRET donor) bound to GST-K-RasG12C to the loaded fluorescent GTP analog (FRET-acceptor).
The fluorescent GTP-analog EDA-GTP-Dy647P1 (2′/3′-O-(2-Aminoethyl-carbamoyl)-guanosine-5′-triphosphate labelled with Dy647P1 (Dyomics GmbH, Germany)) was synthesized by Jena Biosciences GmbH (Germany) and supplied as a 1 mM aqueous solution.
The assay buffer contained 10 mM HEPES pH 7.4 (Applichem), 150 mM NaCl (Sigma), 5 mM MgCl2 (Sigma), 1 mM DTT (Thermofisher), 0.05% BSA Fraction V, pH 7.0, (ICN Biomedicals), 0.0025% (v/v) Igepal (Sigma).
Concentrations of protein batches used were optimized to be within the linear range of the HTRF signal. A Ras working solution was prepared in assay buffer containing typically 100 nM GST-hK-RasG12C and 2 nM antiGST-Tb (Cisbio, France). A hSOS1 working solution was prepared in assay buffer containing typically 20 nM hSOS1 and 200 nM EDA-GTP-Dy647P1. An inhibitor control solution was prepared in assay buffer containing 200 nM EDA-GTP-Dy647P1 without hSOS1.
(§1) Fifty nl of a 100-fold concentrated solution of the test compound in DMSO were transferred into a black microtiter test plate (384 or 1536, Greiner Bio-One, Germany). For this, either a Hummingbird liquid handler (Digilab, MA, USA) or an Echo acoustic system (Labcyte, CA, USA) was used.
All steps of the assay were performed at 20° C. A volume of 2.5 μl of the Ras working solution was added to all wells of the test plate using a Multidrop dispenser (Thermo Labsystems). After 10 min preincubation, 2.5 μl of the hSOS1 working solution were added to all wells except for those wells at the side of the test plate that were subsequently filled with 2.5 μl of the inhibitor control solution. After 30 min incubation the fluorescence was measured with a Pherastar (BMG, Germany) using the HTRF module (excitation 337 nm, emission 1: 620 nm, emission 2: 665 nm).
(§2) IC50 values were calculated by 4-Parameter fitting using a commercial software package (Genedata Screener, Switzerland).

Test [2] concerns the target K-Ras^G12C : hSOS1 interaction (Homo sapiens, UniProt Q07889). Description: Biochemical assay 1: K-Ras^G12C interaction assay with hSOS1 (HTRF). The test is classed as binding. Particulars: for IC50: read-out: Assay 1 (KRAS-SOS Interaction) activity expressed as IC50. Here is the method:
Biochemical assay 1: K-Ras^G12C Interaction Assay with hSOS1
This assay quantifies the equilibrium interaction of human SOS1 with K-Ras^Gl2C. Detection of the interaction is achieved by measuring homogenous time-resolved fluorescence resonance energy transfer (HTRF) from antiGST-Europium (FRET donor) bound to GST-K-Ras^G12C to anti-6His-XL665 bound to His-tagged hSOS1 (FRET-acceptor).
The assay buffer contained 5 mM HEPES pH 7.4 (Applichem), 150 mM NaCl (Sigma), 10 mM EDTA (Promega), 1 mM DTT (Thermofisher), 0.05% BSA Fraction V, pH 7.0, (ICN Biomedicals), 0.0025% (v/v) Igepal (Sigma) and 100 mM KF (FLUKA).
Concentrations of protein batches used were optimized to be within the linear range of the HTRF signal. A Ras working solution was prepared in assay buffer containing typically 10 nM GST-hK-RasG12C and 2 nM antiGST-Eu(K) (Cisbio, France). A SOS working solution was prepared in assay buffer containing typically 20 nM His-hSOS1 and 10 nM anti-6His-XL665 (Cisbio, France). An inhibitor control solution was prepared in assay buffer containing 10 nM anti-6His-XL665 without hSOS1.
as §1
All steps of the assay were performed at 20° C. A volume of 2.5 μl of the Ras working solution was added to all wells of the test plate using a Multidrop dispenser (Thermo Labsystems). After 2 min preincubation, 2.5 μl of the SOS working solution were added to all wells except for those wells at the side of the test plate that were subsequently filled with 2.5 μl of the inhibitor control solution. After 60 min incubation the fluorescence was measured with a Pherastar (BMG, Germany) using the HTRF module (excitation 337 nm, emission 1: 620 nm, emission 2: 665 nm).
as §2

Test [3] deals with human SOS1 (nucleotide exchange of K-Ras^G12C) (Homo sapiens, UniProt Q07889). The test is described as follows: Biochemical assay 2: K-Ras^G12C activation assay by hSOS1 at high GTP concentration (HTRF). To be noted: high GTP; for IC50: read-out: Assay 2 (KRAS-Activation by SOS high GTP) activity expressed as IC50; for inhibition at 20 µM: read-out: Assay 2 (KRAS-Activation by SOS high GTP) activity expressed as % inhibition at 20 μM.

As to `COc1cc2nc(C)nc(N[C@@H](C)c3ccc(-c4cccc5cnccc45)s3)c2cc1OC` (racemic) [Example 45, N-{1-[5-(isoquinolin-5-yl)thiophen-2-yl]ethyl}-6,7-dimethoxy-2-methylquinazolin-4-amine], the IC50 is 1.1 µM in test [1], 1.51 µM in test [2] and 2.17 µM in test [3].

For `COc1cc2nc(C)nc(N[C@@H](C)c3ccc(-c4cncc(C)c4)s3)c2cc1OC` (racemic) [Example 46, 6,7-dimethoxy-2-methyl-N-{1-[5-(5-methylpyridin-3-yl)thiophen-2-yl]ethyl}quinazolin-4-amine], the IC50 in test [1] worked out at 4.1 µM; in test [2], 2.37 µM; in test [3], 3.82 µM.

Regarding `COc1cc2nc(C)nc(N[C@@H](C)c3ccc(-c4ccccc4C(=O)N(C)C)s3)c2cc1OC` (racemic) [Example 48, 2-(5-{1-[(6,7-dimethoxy-2-methylquinazolin-4-yl)amino]ethyl}thiophen-2-yl)-N,N-dimethylbenzamide], the IC50 was found to be 4.52 µM in test [1], 2.12 µM in test [2] and 3.27 µM in test [3].

As for `COc1cc2nc(C)nc(N[C@@H](C)c3ccc(-c4ccncc4C)s3)c2cc1OC` (racemic) [Example 53, 6,7-dimethoxy-2-methyl-N-{1-[5-(3-methylpyridin-4-yl)thiophen-2-yl]ethyl}quinazolin-4-amine], the IC50 came out at 1.08 µM in test [1], 0.669 µM in test [2] and 1.28 µM in test [3].

As for `COc1cc2nc(C)nc(N[C@@H](C)c3ccc(-c4ccc5cc[nH]c5c4)s3)c2cc1OC` (racemic) [Example 54, N-{1-[5-(1H-indol-6-yl)thiophen-2-yl]ethyl}-6,7-dimethoxy-2-methylquinazolin-4-amine], the figures for the IC50 in test [1], in test [2] and in test [3] were 4.07 µM, 4.19 µM and 4.13 µM, respectively.

Turning to `COc1cc2nc(C)nc(N[C@@H](C)c3ccc(-c4cncc(S(C)(=O)=O)c4)s3)c2cc1OC` (racemic) [Example 127], the inhibition at 20 µM in test [1] was determined as 42%; in test [3] it was 44%. Also, the IC50 in test [2] was 17.8 µM.

Consider `COc1cc2nc(C)nc(N[C@@H](C)c3ccc(-c4cnc5[nH]ccc5c4)s3)c2cc1OC` (racemic) [Example 129, 6,7-dimethoxy-2-methyl-N-{1-[5-(1H-pyrrolo[2,3-b]pyridin-5-yl)thiophen-2-yl]ethyl}quinazolin-4-amine], for which the IC50 in test [1] is 3.45 µM; in test [2] it was 1.48 µM; in test [3] it was 2.38 µM.

Take `COc1cc2nc(C)nc(N[C@@H](C)c3ccc(-c4cccc(S(N)(=O)=O)c4)s3)c2cc1OC` (racemic) [Example 130, 3-(5-{1-[(6,7-dimethoxy-2-methylquinazolin-4-yl)amino]ethyl}thiophen-2-yl)benzenesulfonamide]: the values for the IC50 in test [1], in test [2] and in test [3] were 11.7 µM, 3.43 µM and 4.31 µM, respectively.

On to `COc1cc2nc(C)nc(N[C@@H](C)c3ccc(-c4cnc(N)nc4)s3)c2cc1OC` (racemic) [Example 131, N-{1-[5-(2-aminopyrimidin-5-yl)thiophen-2-yl]ethyl}-6,7-dimethoxy-2-methylquinazolin-4-amine], for which the figures for the IC50 in test [1], in test [2] and in test [3] were 5.94 µM, 2.23 µM and 3.37 µM, respectively.

Regarding `COc1cc2nc(C)nc(N[C@@H](C)c3ccc(/C=C/C4CC4)s3)c2cc1OC` (racemic) [Example 132, N-[1-{5-[(E)-2-cyclopropylethenyl]thiophen-2-yl}ethyl]-6,7-dimethoxy-2-methylquinazolin-4-amine], the inhibition at 20 µM in test [1] is 46%. In addition, the IC50 in test [2] was found to be 6.58 µM; in test [3] it was 8.05 µM.

On to `CCOCc1ccccc1-c1ccc([C@H](C)Nc2nc(C)nc3cc(OC)c(OC)cc23)s1` (racemic) [Example 133, N-[1-{5-[2-(ethoxymethyl)phenyl]thiophen-2-yl}ethyl]-6,7-dimethoxy-2-methylquinazolin-4-amine], for which the IC50 in test [1] turned out to be 5.67 µM; in test [2], 4.3 µM; in test [3] it was 4.03 µM.

Consider `COc1cc2nc(C)nc(N[C@@H](C)c3ccc(-c4ccc(C(=O)NCCN(C)C)cc4)s3)c2cc1OC` (racemic) [Example 142, 4-(5-{1-[(6,7-dimethoxy-2-methylquinazolin-4-yl)amino]ethyl}thiophen-2-yl)-N-[2-(dimethylamino)ethyl]benzamide], for which the IC50 was 1.02 µM in test [1], 1.01 µM in test [2] and 1.81 µM in test [3].

As to `C/C=C(\C)c1ccc([C@H](C)Nc2nc(C)nc3cc(OC)c(OC)cc23)s1` (racemic) [Example 143, N-[1-{5-[(2E)-but-2-en-2-yl]thiophen-2-yl}ethyl]-6,7-dimethoxy-2-methylquinazolin-4-amine], the IC50 in test [1] came to 17.8 µM; in test [2] it was 7.64 µM; in test [3], 8.76 µM.

As for `COc1cc2nc(C)nc(N[C@@H](C)c3ccc(/C=C/Cc4ccccc4)s3)c2cc1OC` (racemic) [Example 145, 6,7-dimethoxy-2-methyl-N-[1-{5-[(1E)-3-phenylprop-1-en-1-yl]thiophen-2-yl}ethyl]quinazolin-4-amine], the inhibition at 20 µM was 11% in test [1], 40% in test [2] (read-out: Assay 1 (KRAS-SOS Interaction) activity expressed as % inhibition at 20 μM) and 18% in test [3].

Take `COc1cc2nc(C)nc(N[C@@H](C)c3ccc(-c4cc(N)ccc4C)s3)c2cc1OC` (racemic) [Example 146, N-{1-[5-(5-amino-2-methylphenyl)thiophen-2-yl]ethyl}-6,7-dimethoxy-2-methylquinazolin-4-amine]: the values for the IC50 in test [1], in test [2] and in test [3] were 1.48 µM, 0.911 µM and 1.5 µM, respectively.

`COc1cc2nc(C)nc(N[C@@H](C)c3ccc(-c4c(C)noc4C)s3)c2cc1OC` (racemic) [Example 147, N-{1-[5-(3,5-dimethyl-1,2-oxazol-4-yl)thiophen-2-yl]ethyl}-6,7-dimethoxy-2-methylquinazolin-4-amine]: the IC50 in test [1] is 0.658 µM; in test [2], 0.397 µM; in test [3], 0.767 µM.

On to `COc1cc2nc(C)nc(N[C@@H](C)c3ccc(-c4ccccc4S(C)(=O)=O)s3)c2cc1OC` (racemic) [Example 148, 6,7-dimethoxy-2-methyl-N-[1-{5-[2-(methylsulfonyl)phenyl]thiophen-2-yl}ethyl]quinazolin-4-amine], for which the IC50 in test [1] was found to be 3.06 µM; in test [2], 1.41 µM; in test [3] it was 3.4 µM.
